Measured values published in article PMC3900635, “Transport Rankings of Non-Steroidal Antiinflammatory Drugs across Blood-Brain Barrier In Vitro Models” (PLoS ONE, 2014).
Where two headings read alike, the source gives them in different places.

How the values were obtained:
PBMEC/C1-2 cell layers = experiment: in vitro; settings: for PEcell: PBMEC/C1-2 group study
Experimental: (§1) All solutions were prepared under sterile conditions.
(§2) For quantification of NSAIDs a reverse-phase high-performance liquid chromatography (RP-HPLC) system from Shimadzu was used (DGV-20A5/prominence Degasser, SIL – 20AC/prominence Auto Sampler, CTO – 20AC/prominence Column Oven, SPD – 20A/prominence UV detector, CMB – 20A/prominence Communications Bus Module). […] Before analysis proteins of samples were precipitated with ice-cold methanol or acetonitril depending on mobile phase composition and supernatants were analyzed. Data aquisition and analysis were performed by LC-Solution software (Shimadzu Handelsgesellschaft, Austria). Substances were analysed in triplicates with a injection volume of 20–50 µL.Varying mixtures of methanol, acetonitrile, and 10 mM potassium buffer (pH = 2.5 for all analysis except pH = 3.5 for single studies with celecoxib) were used as mobile phase.
(§3) Permeability coefficients were calculated following the clearance principle as described recently. Results of blank value experiments were included into permeability coefficient calculation by using reciprocal correlation shown in equation (1):
(§4) 1/PEcell = 1/PEall – 1/PEblank (1)
(§5) PEblank refers to the permeability coefficient without cell layer, PEall represents the permeability coefficient through membrane insert and the cell layer and PEcell is the permeability coefficient only through the cell layer.

[1] = format: in vitro ADME, calf; settings: group composition, ultrafiltration
Experimental: […]. After incubation at 37°C for 40 minutes, 2 mL of the solutions were centrifuged across prewashed (2 mL PBS, 10 minutes, 2500 g) Centrisart ultra-filters (molecular cut-off 10 kDa, Sartorius) at 2500 g for 5 (PBS and 0% serum), 10 (7.5% serum) or 15 (50% and 100% serum) minutes to obtain at least one third to one half of the totally applied volume. […]. Carboxyfluorescein was measured by the microplate reader method as described above. Unbound substance concentrations in the filtrates were related to stock solutions to determine the serum binding (100%-unbound fraction [%]). Blank experiments (PBS, 0% serum experiments) were included in the calculation of serum binding values to consider systematic procedure errors and binding of the substances to the ultrafiltration membrane. Experiments under each condition were repeated for three times.

[2] = Single transport studies across ECV304 layers (Transwell)
Experimental: as §1, §2, §3, §4, §5

ECV304 cell layers = experiment: in vitro
Experimental: as §1, §2, §3, §4, §5

[3] = system: primary rat brain microvascular endothelial cells (RBMEC); experiment: in vitro
Experimental: as §1, §2, §3, §4, §5

[4] = Group transport studies across ECV304 layers (Transwell); settings: human, PEcell
Experimental: as §1, §2, §3, §4, §5

[5] = pig, PEcell, PBMEC/C1-2 group study, all substances (6 NSAIDs, diazepam, CF), C6 medium
[6] = pig, PEcell, PBMEC/C1-2 group study, without Meloxicam
[7] = pig, with verapamil (concentration not stated), PEcell, PBMEC/C1-2 group study, with Verapamil, without Meloxicam
[8] = ECV304 group study, all substances (6 NSAIDs, diazepam, CF), C6 medium
[9] = ECV304 group study, without Meloxicam
[10] = with probenecid (concentration not stated), ECV304 group study, with Probenecid, without Meloxicam
[11] = with verapamil (concentration not stated), ECV304 group study, with Verapamil, without Meloxicam

Compound: CN1C(=O)CN=C(c2ccccc2)c2cc(Cl)ccc21 [Diazepam, diazepam]
- PEall (PBMEC/C1-2 cell layers; pig): 11.10±1.33 µm/min
- Serum binding ([1]; Serum concentration 50%): 19.52±0.13%
- Serum binding ([1]; Serum concentration 100%): 22.52±0.06%
- Serum binding ([1]; Serum concentration […] (C6 medium)): 8.17±0.49%

Compound: CN1C(C(=O)Nc2ccccn2)=C(O)c2ccccc2S1(=O)=O [Piroxicam, piroxicam]
- Papp at 100 µM ([2]; human): 20.4 ×10⁻⁶ cm/s
- Papp at 100 µM ([2]; pig): 39.7 ×10⁻⁶ cm/s
- Papp at 100 µM [2, 5]: 70 ×10⁻⁶ cm/s
- Papp at 100 µM ([2]; pig, PEcell, PBMEC/C1-2 group study, glioma conditioned medium, without celecoxib): 49.8 ×10⁻⁶ cm/s
- Papp at 100 µM ([2]; pig, PEcell, PBMEC/C1-2 group study, without Celecoxib): 42.1 ×10⁻⁶ cm/s
- Papp at 100 µM [2, 6]: 64.2 ×10⁻⁶ cm/s
- Papp at 100 µM [2, 7]: 66.8 ×10⁻⁶ cm/s
- Papp at 100 µM ([2]; rat): 52.3 ×10⁻⁶ cm/s
- PSblank (ECV304 cell layers; 100 µM): 8.53 ± 0.36 µL/min
- PEall (ECV304 cell layers; ECV304, Piroxicam study, insert and cell layer): 7.65±0.18 µm/min
- PSall (ECV304 cell layers; human, 100 µM): 3.21 ± 0.07 µL/min
- PScell (ECV304 cell layers; human, 240 min, 100 µM): 5.15 ± 0.19 µL/min
- PSblank (PBMEC/C1-2 cell layers; 100 µM): 8.69 ± 0.72 µL/min
- PEall (PBMEC/C1-2 cell layers; PBMEC/C1-2, Piroxicam study, insert and cell layer): 11.02±0.87 µm/min
- PEcell (PBMEC/C1-2 cell layers; serum-free medium, without celecoxib): 24.96±2.08 µm/min
- PEcell (PBMEC/C1-2 cell layers; with Probenecid, without Meloxicam): 30.26±5.85 µm/min
- PEcell (PBMEC/C1-2 cell layers; without CF (and without celecoxib)): 30.27±2.61 µm/min
- PSall (PBMEC/C1-2 cell layers; pig, 240 min, 100 µM): 4.63 ± 0.36 µL/min
- PScell (PBMEC/C1-2 cell layers; pig, 240 min, 100 µM): 9.91 ± 1.60 µL/min
- PSblank ([3]; 100 µM): 1.94 ± 0.12 µL/min
- PEall ([3]; RBMEC group study, insert and cell layer): 12.76±0.33 µm/min
- PSall ([3]; rat, 100 µM): 1.15 ± 0.03 µL/min
- PScell ([3]; rat, 100 µM): 2.82 ± 0.17 µL/min
- Papp at 100 µM [4, 8]: 21.4 ×10⁻⁶ cm/s
- Papp at 100 µM ([4]; ECV304 group study, glioma conditioned medium, without celecoxib): 30.8 ×10⁻⁶ cm/s
- Papp at 100 µM ([4]; ECV304 group study, serum-free medium, without celecoxib): 37.8 ×10⁻⁶ cm/s
- Papp at 100 µM ([4]; ECV304 group study, without CF (and without celecoxib)): 30.3 ×10⁻⁶ cm/s
- Papp at 100 µM ([4]; ECV304 group study, without Celecoxib): 28.6 ×10⁻⁶ cm/s
- Papp at 100 µM [4, 9]: 45.9 ×10⁻⁶ cm/s
- Papp at 100 µM [4, 10]: 29.5 ×10⁻⁶ cm/s
- Papp at 100 µM [4, 11]: 26.6 ×10⁻⁶ cm/s

Compound: Cc1ccc(-c2cc(C(F)(F)F)nn2-c2ccc(S(N)(=O)=O)cc2)cc1 [Celecoxib, celecoxib]
- Papp at 100 µM ([2]; human): 7.62 ×10⁻⁶ cm/s
- Papp at 100 µM ([2]; pig): 22.4 ×10⁻⁶ cm/s
- Papp at 100 µM [2, 5]: 22.1 ×10⁻⁶ cm/s
- Papp at 100 µM [2, 6]: 25.8 ×10⁻⁶ cm/s
- Papp at 100 µM ([2]; pig, with probenecid (concentration not stated), PEcell, PBMEC/C1-2 group study, with Probenecid, without Meloxicam): 27.8 ×10⁻⁶ cm/s
- Papp at 100 µM [2, 7]: 35.1 ×10⁻⁶ cm/s
- PSblank (ECV304 cell layers; 100 µM): 5.10 ± 0.06 µL/min
- PEall (ECV304 cell layers; ECV304, Celecoxib study, insert and cell layer): 3.31±0.41 µm/min
- PSall (ECV304 cell layers; human, 100 µM): 1.39 ± 0.17 µL/min
- PScell (ECV304 cell layers; human, 100 µM): 1.91 ± 0.32 µL/min
- PSblank (PBMEC/C1-2 cell layers; 100 µM): 6.07 ± 0.45 µL/min
- PEall (PBMEC/C1-2 cell layers; PBMEC/C1-2, Celecoxib study, insert and cell layer): 6.95±0.45 µm/min
- PSall (PBMEC/C1-2 cell layers; pig, 100 µM): 2.92 ± 0.19 µL/min
- PScell (PBMEC/C1-2 cell layers; pig, 100 µM): 5.62 ± 0.71 µL/min
- Papp at 100 µM [4, 8]: 11 ×10⁻⁶ cm/s
- Papp at 100 µM [4, 9]: 23.3 ×10⁻⁶ cm/s
- Papp at 100 µM [4, 10]: 15.5 ×10⁻⁶ cm/s
- Papp at 100 µM [4, 11]: 10.3 ×10⁻⁶ cm/s

Compound: carboxyfluorescein [CF]
- Permeability coefficients (PEcell), range of averages over the single studies (PBMEC/C1-2 cell layers): 16.67-19.66 µm/min

Compound: CC(C)Cc1ccc(C(C)C(=O)O)cc1 (centres unmarked) [Ibuprofen, ibuprofen]
- Papp at 100 µM ([2]; pig): 28.2 ×10⁻⁶ cm/s
- Papp at 100 µM ([2]; rat): 53.3 ×10⁻⁶ cm/s
- PEall (ECV304 cell layers; human, 100 µM): 4.82±0.05 µm/min
- PSblank (PBMEC/C1-2 cell layers): 6.72 ± 0.12 µL/min
- PScell (PBMEC/C1-2 cell layers; PBMEC/C1-2, Ibuprofen study, cell layer only): 7.10 ± 0.65 µL/min
- PSall (PBMEC/C1-2 cell layers; PBMEC/C1-2, Ibuprofen study, insert and cell layer): 3.45 ± 0.15 µL/min
- PSblank [3]: 1.71 ± 0.15 µL/min
- PSall ([3]; rat): 1.07 ± 0.06 µL/min
- PScell ([3]; rat): 2.86 ± 0.39 µL/min
- Papp at 100 µM [4]: 16.3 ×10⁻⁶ cm/s

Compound: CN1C(C(=O)Nc2ccccn2)=C(O)c2sccc2S1(=O)=O [Tenoxicam, tenoxicam]
- Papp at 100 µM ([2]; human): 12.3 ×10⁻⁶ cm/s
- Papp at 100 µM ([2]; pig): 36.7 ×10⁻⁶ cm/s
- Papp at 100 µM ([2]; pig, PEcell): 38.5 ×10⁻⁶ cm/s
- Papp at 100 µM ([2]; rat): 21.9 ×10⁻⁶ cm/s
- PSblank (ECV304 cell layers; 100 µM): 7.12 ± 0.50 µL/min
- PEall (ECV304 cell layers; human, 100 µM): 5.15±0.05 µm/min
- PSall (ECV304 cell layers; human, 100 µM): 2.16 ± 0.02 µL/min
- PScell (ECV304 cell layers; human, 100 µM): 3.11 ± 0.04 µL/min
- PSblank (PBMEC/C1-2 cell layers; 100 µM): 7.47 ± 0.31 µL/min
- PEall (PBMEC/C1-2 cell layers; pig, 100 µM): 9.84±0.16 µm/min
- PSall (PBMEC/C1-2 cell layers; pig, 100 µM): 4.13 ± 0.07 µL/min
- PScell (PBMEC/C1-2 cell layers; pig, 100 µM): 9.25 ± 0.33 µL/min
- PSblank ([3]; 100 µM): 1.74 ± 0.10 µL/min
- PEall ([3]; rat, 100 µM): 7.82±0.21 µm/min
- PSall ([3]; rat, 100 µM): 0.70 ± 0.02 µL/min
- PScell ([3]; rat, 100 µM): 1.18 ± 0.05 µL/min

Compound: O=C(O)Cc1ccccc1Nc1c(Cl)cccc1Cl [Diclofenac, diclofenac]
- Papp at 100 µM ([2]; human): 9.45 ×10⁻⁶ cm/s
- Papp at 100 µM ([2]; pig): 17.7 ×10⁻⁶ cm/s
- Papp at 100 µM ([2]; rat): 44.6 ×10⁻⁶ cm/s
- PSblank (ECV304 cell layers; 100 µM): 4.08 ± 0.41 µL/min
- PEall (ECV304 cell layers; human, 100 µM): 3.58±0.18 µm/min
- PSall (ECV304 cell layers; human, 100 µM): 1.50 ± 0.08 µL/min
- PScell (ECV304 cell layers; human, 100 µM): 2.38 ± 0.19 µL/min
- PSblank (PBMEC/C1-2 cell layers; 100 µM): 5.83 ± 0.26 µL/min
- PEall (PBMEC/C1-2 cell layers; pig, 100 µM): 6.00±0.38 µm/min
- PSall (PBMEC/C1-2 cell layers; pig, 100 µM): 2.52 ± 0.16 µL/min
- PScell (PBMEC/C1-2 cell layers; pig, 100 µM): 4.44 ± 0.48 µL/min
- PSblank ([3]; 100 µM): 1.65 ± 0.13 µL/min
- PEall ([3]; rat, 100 µM): 10.84±0.51 µm/min
- PSall ([3]; rat, 100 µM): 0.96 ± 0.05 µL/min
- PScell ([3]; rat, 100 µM): 2.39 ± 0.27 µL/min
